Usually IC50 stands for the midpoint of a concentration-inhibition curve.

The text below walks through data of US20190331666A1, “METHODS FOR DRUG DISCOVERY USING STEM CELL-DERIVED SCHWANN CELLS” (MEMORIAL SLOAN-KETTERING CANCER CENTER, priority 2016, published 2019).

Data set [1] concerns patients suffering from neuropathic pain. The following applies: cited from earlier work.
Data set [2] deals with pyruvate levels in hESC-SCs. Briefly: Pyruvate measurement in hESC-SCs. The following applies: high glucose. The class given is cell-based, human. From the text:
(§1) High glucose, low glucose and drug treated SCs and sensory neurons were subjected to biochemical assays for Sorbitol (abcam, ab118968), glucose (abcam, ab65333), Pyruvate (abcam, ab65342) and 2DG uptake (abcam, ab136955) measurements according to manufacturer's instructions. Data was normalizing according to cell numbers and averaged over 3-6 biological replicates.

The subject of data set [3] is high glucose treated hESC-SCs. Briefly: High content screening for drugs reversing glucose-mediated SC cytotoxicity (Prestwick library). The data set is classed as cell-based, human. The following applies: 30 mM glucose, compounds at 1 μM, 72 hours. Here is the method: The chemical compound screening was performed using the Prestwick Chemical Library®. RFP-labeled hESC-SCs were plated in 384 well plates (1,000/well) and treated with 30 mM glucose immediately before addition of the compounds. The compounds were added at 1 μM concentration. 72 hours later, the plates were treated with DAPI for ten minutes, washed twice and fixed for total plate imaging. The number of viable cells was quantified for each well by counting the number of DAPI negative, RFP positive cells. The percentage of dead cells were calculated for each well by dividing the number of DAPI positive cells by total RFP positive cells.
Data are presented as mean±SEM and were derived from at least 3 independent experiments. Statistical analysis was performed using the Student t-test (comparing 2 groups) or ANOVA with Dunnett test (comparing multiple groups against control). Distribution of the raw data approximated normal distribution (Kolmogorov Smirnov normality test) for data with sufficient number of replicates to test for normality. Survival analysis was performed using log rank (Mantel-Cox) test. Z-scores for primary hits were calculated as Z=(x−μ)/σ. X is the migration score value and is 3 for all hit compounds. μ is the mean migration score value and a is the standard deviation for all compounds and DMSO controls

Data set [4] concerns intracellular glucose levels in hESC-SCs. Description: Intracellular glucose measurement in hESC-SCs. The data set is classed as cell-based, human. The following applies: high glucose.
Source text: as §1

The subject of data set [5] is glucose uptake in hESC-SCs. Briefly: Glucose (2DG) uptake in hESC-SCs. The data set is classed as cell-based, human. The following applies: high glucose.
Source text: as §1

Data set [6] deals with STZ-treated C57BL6 mice. Description: Blood glucose in STZ-treated diabetic mice. The class given is in vivo. The following applies: oral in chow ~300 mg/kg daily. The procedure:
(§2) All procedures were performed following NIH guidelines, and were approved by the local Institutional Animal Care and Use Committee (IACUC). 3-8 weeks old male C57BL6 mice were treated with one dose IP injection of streptozotocin (180 mg/kg, sigma, 85882) to induce pancreatic beta cell death. Blood glucose levels was measured using a standard glucometer (Freestyle Lite) in weekly intervals starting at one week post-treatment, by drawing a drop of blood from tail tip. BP treatment was initiated one week post-streptozotocin treatment. BP was mixed with standard chow at 1.63 mg/gram of chow to be administered orally at ˜300 mg/kg daily. The dose was calculated on the basis of average daily food intake (5.5 gram/day) and initial body weight (30 grams).

Data set [7] concerns sorbitol levels in hESC-SCs. Briefly: Sorbitol measurement in hESC-SCs. The class given is cell-based, human. The following applies: high glucose treated hESC-SCs. Here is the method: High glucose, low glucose and drug treated SCs and sensory neurons were subjected to biochemical assays for Sorbitol (abcam, ab118968), glucose (abcam, ab65333), Pyruvate (abcam, ab65342) and 2DG uptake (abcam, ab136955) measurements according to manufacturer's instructions. Data was normalizing according to cell numbers and averaged over 3-6 biological replicates. For validation of the selected hit compound (Bupropion HCL, Sigma, B102), the cells were treated with various concentrations of the compound for dose response analysis. The highest non-toxic dose (0.7 μM-based on optimal sorbitol reduction and viability) was used for follow-up experiments.

Data set [8] deals with STZ-treated C57BL6 mice. Description: Mouse thermal sensitivity (hot plate) test in STZ-treated mice. The data set is classed as in vivo. The following applies: seven and eight weeks post STZ, oral in chow ~300 mg/kg daily. Here is the method:
as §2, with “grams). Thermal nociception was assessed using the hot plate test. The hot plate (Ugo Basile 35100) consisted of a metal surface (55° C.) with a transparent plexiglass cylinder to contain the mouse. […] Typical baseline latencies are 5-10 seconds, with maximal latencies of 30 seconds.” for “grams).”

In data set [9] the test system is STZ-treated C57BL6 mice. Briefly: TUNEL staining of sciatic nerves of STZ-treated mice. The data set is classed as in vivo. The following applies: oral in chow ~300 mg/kg daily. The procedure:
as §2

Data set [10] concerns high glucose treated hESC-SCs. Description: Dose response validation, SC viability / cell death (LDH). The data set is classed as cell-based, human. The procedure: To monitor the viability of SCs, cells were assayed for LDH activity using CytoTox 96 cytotoxicity assay kit (Promega, G1780). Briefly, the cells were plated in 96 well plates at 30,000 cells/cm^2. The supernatant and the cell lysate is harvested 24 hours later and assayed for LDH activity using a plate reader (490 nm absorbance). Viability was calculated by dividing the LDH signal of the lysate by total LDH signal (from lysate plus supernatant). The cells were cultured in Schwann cell medium (Sciencell, 1701) on PO/LM/FN coated dishes during the assay. For validation of the selected hit compound (Bupropion HCL, Sigma, B102), the cells were treated with various concentrations of the compound for dose response analysis. The highest non-toxic dose (0.7 μM-based on optimal sorbitol reduction and viability) was used for follow-up experiments.

Data set [11] relates to STZ-treated C57BL6 mice. Description: Transmission electron microscopy of myelin in sciatic nerves of STZ-treated mice. The class given is in vivo. The following applies: oral in chow ~300 mg/kg daily. Here is the method:
as §2

The subject of a further data set is rodent GSK3β homologs. The following applies: cited from earlier work.

As to `CC(NC(C)(C)C)C(=O)c1cccc(Cl)c1.Cl` (stereo not drawn) [BP, 2-(tert-butylamino)-1-(3-chlorophenyl)propan-1-one;hydrochloride], the “benefit in the treatment of neuropathic pain” value in data set [1] is given as “some benefit”. Besides, the levels of pyruvate result in data set [2] is “increased”. The “enhancing the viability of high glucose treated hESC-SCs (primary screen)” value in data set [3] was “most potent compound”. The intracellular glucose levels result in data set [4] was “reduced”. Further, in data set [5], the glucose uptake result is listed as “without affecting”. The blood glucose levels result in the data set with STZ-treated C57BL6 mice [6] is reported as “does not affect glucose levels”. Also, in data set [7] (Homo sapiens, read-out: IC50 (dose-response in rescuing SC viability and in decreasing sorbitol levels)), the IC50 came out at 263 nM. Also, the “highest non-toxic dose (based on optimal sorbitol reduction and viability)” value in [7] is 0.7 µM. The “dose of maximum effect” value in data set [7] (dose used for all further studies) was found to be 0.7. For the same compound, in the data set with STZ-treated C57BL6 mice [8], the “response time to thermal stimulation (latency of hind paw withdrawal)” value is listed as “significantly improved response time”. Also, the “TUNEL+ apoptotic cells in the sciatic nerves” value in the data set on STZ-treated C57BL6 mice [9] was “significantly fewer apoptotic cells”. In data set [10] (hESC-SCs), the “levels inducing gradual dose-dependent toxicity” value is given as “above 2 μM”. In addition, the “rescuing SC viability” value in data set [10] (high glucose treated hESC-SCs, various concentrations) is given as “dose-response”. Further, in the data set on STZ-treated C57BL6 mice [11], the “percentage of damaged myelin in the sciatic nerves” value is “significantly reduced”.

As to `Cc1c[nH]c(-c2cnc(NCCNc3ccc(C#N)cn3)nc2-c2ccc(Cl)cc2Cl)n1` [CHIR99021, 6-(2-(4-(2,4-dichlorophenyl)-5-(4-methyl-1H-imidazol-2-yl)pyrimidin-2-ylamino)ethylamino)nicotinonitrile], the “IC50 values against rodent GSK3β homologs” value with rodent GSK3β homologs is recorded as “nanomolar”.
